≈ marks a conversion by molar mass, not a printed value.
What was measured:
HepG2 [1] = assay: Cytotoxicity against Homo sapiens (human) HepG2 cells after 48 hr by MTT assay; format: functional, cell-based; settings: HepG2, 48 h
HepG2 [2] = assay: Cytotoxicity against Homo sapiens (human) HepG2 cells assessed as cell viability at 1.56 ug/ml after 48 hr by MTT assay; format: functional; settings: HepG2, 48 h, read-out: Activity
HepG2 [3] = assay: Cytotoxicity against Homo sapiens (human) HepG2 cells assessed as cell viability at 6.25 ug/ml after 48 hr by MTT assay; format: functional; settings: HepG2, 48 h, read-out: Activity
HepG2 [4] = assay: Cytotoxicity against Homo sapiens (human) HepG2 cells assessed as cell viability at 3.125 ug/ml after 48 hr by MTT assay; format: functional; settings: HepG2, 48 h, read-out: Activity
HepG2 [5] = assay: Cytotoxicity against Homo sapiens (human) HepG2 cells assessed as cell viability at 25 ug/ml after 48 hr by MTT assay; format: functional; settings: HepG2, 48 h, read-out: Activity
HepG2 [6] = assay: Cytotoxicity against Homo sapiens (human) HepG2 cells assessed as cell viability at 12.5 ug/ml after 48 hr by MTT assay; format: functional; settings: HepG2, 48 h, read-out: Activity
[7] = Cytotoxicity against Homo sapiens (human) HCT cells after 48 hr by MTT assay; format: functional, cell-based
HepG2 [8] = assay: Cytotoxicity against Homo sapiens (human) HepG2 cells assessed as cell viability at 50 ug/ml after 48 hr by MTT assay; format: functional; settings: HepG2, 48 h, read-out: Activity
[9] = Cytotoxicity against Homo sapiens (human) HCT cells assessed as cell viability at 1.56 ug/ml after 48 hr by MTT assay; format: functional; settings: read-out: Activity
[10] = Cytotoxicity against Homo sapiens (human) HCT cells assessed as cell viability at 3.125 ug/ml after 48 hr by MTT assay; format: functional; settings: read-out: Activity
[11] = Cytotoxicity against Homo sapiens (human) HCT cells assessed as cell viability at 6.25 ug/ml after 48 hr by MTT assay; format: functional; settings: read-out: Activity
[12] = Cytotoxicity against Homo sapiens (human) HCT cells assessed as cell viability at 12.5 ug/ml after 48 hr by MTT assay; format: functional; settings: read-out: Activity
[13] = Cytotoxicity against Homo sapiens (human) HCT cells assessed as cell viability at 25 ug/ml after 48 hr by MTT assay; format: functional; settings: read-out: Activity
[14] = Cytotoxicity against Homo sapiens (human) HCT cells assessed as cell viability at 50 ug/ml after 48 hr by MTT assay; format: functional; settings: read-out: Activity
MCF7 [15] = assay: Cytotoxicity against Homo sapiens (human) MCF7 cells after 48 hr by MTT assay; format: functional, cell-based; settings: MCF7, 48 h
MCF7 [16] = assay: Cytotoxicity against Homo sapiens (human) MCF7 cells assessed as cell viability at 1.56 ug/ml after 48 hr by MTT assay; format: functional; settings: MCF7, 48 h, read-out: Activity
MCF7 [17] = assay: Cytotoxicity against Homo sapiens (human) MCF7 cells assessed as cell viability at 3.125 ug/ml after 48 hr by MTT assay; format: functional; settings: MCF7, 48 h, read-out: Activity
MCF7 [18] = assay: Cytotoxicity against Homo sapiens (human) MCF7 cells assessed as cell viability at 6.25 ug/ml after 48 hr by MTT assay; format: functional; settings: MCF7, 48 h, read-out: Activity
MCF7 [19] = assay: Cytotoxicity against Homo sapiens (human) MCF7 cells assessed as cell viability at 12.5 ug/ml after 48 hr by MTT assay; format: functional; settings: MCF7, 48 h, read-out: Activity
MCF7 [20] = assay: Cytotoxicity against Homo sapiens (human) MCF7 cells assessed as cell viability at 25 ug/ml after 48 hr by MTT assay; format: functional; settings: MCF7, 48 h, read-out: Activity
MCF7 [21] = assay: Cytotoxicity against Homo sapiens (human) MCF7 cells assessed as cell viability at 50 ug/ml after 48 hr by MTT assay; format: functional; settings: MCF7, 48 h, read-out: Activity

SMILES	IC50 (HepG2 [1])	viability at 1.56 µg/mL (HepG2 [2])	viability at 6.25 µg/mL (HepG2 [3])	viability at 3.125 µg/mL (HepG2 [4])	viability at 25 µg/mL (HepG2 [5])	viability at 12.5 µg/mL (HepG2 [6])	IC50 [7]	viability at 50 µg/mL (HepG2 [8])	viability at 1.56 µg/mL [9]	viability at 3.125 µg/mL [10]	viability at 6.25 µg/mL [11]	viability at 12.5 µg/mL [12]	viability at 25 µg/mL [13]	viability at 50 µg/mL [14]	IC50 (MCF7 [15])	viability at 1.56 µg/mL (MCF7 [16])	viability at 3.125 µg/mL (MCF7 [17])	viability at 6.25 µg/mL (MCF7 [18])	viability at 12.5 µg/mL (MCF7 [19])	viability at 25 µg/mL (MCF7 [20])	other results
N#CC1=C(N)Oc2c(ccc3ccc(/C=C/c4ccc(F)cc4)nc23)C1c1ccc(Br)cc1 (centres undefined)	> 50 µg/mL	100%	97.2%	98.9%	74.8%	83.4%	> 50 µg/mL	63.4%	100%	98.6%	94.8%	91.1%	83.4%	57.6%	42.5 µg/mL (≈ 85.3 µM)	100%	96.9%	91.8%	80.2%	67.8%	viability at 50 µg/mL (MCF7 [21]): 39.5%
N#CC1=C(N)Oc2c(ccc3ccc(/C=C/c4ccc(F)cc4)nc23)C1c1ccc(Cl)cc1 (centres undefined)	> 50 µg/mL	100%	96.2%	98.9%	78.3%	84.6%	43.8 µg/mL (≈ 96.5 µM)	56.4%	100%	98.8%	95.2%	86.9%	62.5%	41.3%	38.6 µg/mL (≈ 85 µM)	99.3%	97.9%	91.8%	86.7%	79.4%	viability at 50 µg/mL (MCF7 [21]): 28.5%
N#CC1=C(N)Oc2c(ccc3ccc(/C=C/c4ccc(Cl)cc4)nc23)C1c1ccc(Br)cc1 (centres undefined)	23.2 µg/mL (≈ 45.1 µM)	94.6%	77.2%	87.9%	44.9%	69.6%	11.9 µg/mL (≈ 23.1 µM)	33.8%	80.4%	72.5%	69.8%	47.8%	34.2%	27.4%	12.5 µg/mL (≈ 24.3 µM)	98.5%	83.1%	61.8%	50.3%	39.9%	viability at 50 µg/mL (MCF7 [21]): 32.4%
CCOC(=O)C1=C(N)Oc2c(ccc3ccc(/C=C/c4ccc(F)cc4)nc23)C1c1ccc(Br)cc1 (centres undefined)	37.1 µg/mL (≈ 68 µM)	97.1%	83.3%	94.6%	62.9%	76.4%	26.1 µg/mL (≈ 47.9 µM)	34.6%	100%	98.5%	84.9%	78.7%	53.7%	17.4%	38.4 µg/mL (≈ 70.4 µM)	99.3%	93.9%	85.5%	74.6%	67%	viability at 50 µg/mL (MCF7 [21]): 37.6%
CCOC(=O)C1=C(N)Oc2c(ccc3ccc(/C=C/c4ccc(Cl)cc4)nc23)C1c1ccc(Cl)cc1 (centres undefined)	7.9 µg/mL (≈ 15.3 µM)	81.9%	53%	65.3%	37.9%	45.6%	13 µg/mL (≈ 25.1 µM)	28.1%	78.6%	69.3%	64.1%	54.3%	20.4%	14.1%	5.5 µg/mL (≈ 10.6 µM)	78.1%	67.8%	47.2%	41.6%	34.6%	viability at 50 µg/mL (MCF7 [21]): 27.2%
CCOC(=O)C1=C(N)Oc2c(ccc3ccc(/C=C/c4ccc(F)cc4)nc23)C1c1ccc(Cl)cc1 (centres undefined)	47.5 µg/mL (≈ 94.8 µM)	98.9%	85.1%	96.4%	69%	79.4%	26.2 µg/mL (≈ 52.3 µM)	45.2%	98.9%	80.6%	73.1%	69.5%	51.3%	19.8%	37.9 µg/mL (≈ 75.7 µM)	98.5%	92.1%	84.7%	73.5%	61.2%	viability at 50 µg/mL (MCF7 [21]): 34.6%
CCOC(=O)C1=C(N)Oc2c(ccc3ccc(/C=C/c4ccc(Br)cc4)nc23)C1c1ccc(Cl)cc1 (centres undefined)	3.1 µg/mL (≈ 5.52 µM)	72.1%	39.3%	49.6%	22.9%	36.4%	6.1 µg/mL (≈ 10.9 µM)	14.6%	72.1%	66.2%	48.1%	34.4%	24.7%	17.6%	5.4 µg/mL (≈ 9.61 µM)	69.4%	57.9%	45.5%	41.6%	31%	viability at 50 µg/mL (MCF7 [21]): 25.6%
N#CC1=C(N)Oc2c(ccc3ccc(/C=C/c4ccc(Cl)cc4)nc23)C1c1ccc(Cl)cc1 (centres undefined)	48.2 µg/mL (≈ 102 µM)	95.4%	79.2%	85.8%	68.2%	74%	4.8 µg/mL (≈ 10.2 µM)	48.4%	69.1%	59%	42.6%	33.8%	29%	24.7%	5.6 µg/mL (≈ 11.9 µM)	86.6%	61.9%	45.4%	39.7%	33.8%	viability at 50 µg/mL (MCF7 [21]): 29.6%
CC[C@]1(O)C[C@@H]2CN(CCc3c([nH]c4ccccc34)[C@@](C(=O)OC)(c3cc4c(cc3OC)N(C)[C@H]3[C@@](O)(C(=O)OC)[C@H](OC(C)=O)[C@]5(CC)C=CCN6CC[C@]43[C@@H]65)C2)C1 [VINBLASTINE]	4.6 µg/mL (≈ 5.67 µM)	72.1%	45.1%	55%	16.1%	24.2%	2.6 µg/mL (≈ 3.21 µM)	14.4%	53.4%	47.5%	38.1%	28.2%	21.7%	16.3%	6.1 µg/mL (≈ 7.52 µM)	76.2%	60.4%	48.8%	29.6%	15.2%	viability at 50 µg/mL (MCF7 [21]): 7.82%

— ChEMBL document CHEMBL3045245, “Synthesis and antitumor activities of certain novel 2-amino-9-(4-halostyryl)-4H-pyrano[3,2-h]quinoline derivatives” (Med Chem Res, 2012)
